Data as given in ChEMBL document CHEMBL3046322, “Insect growth regulatory effects by diterpenes from Calceolaria talcana Grau & Ehrhart (Calceolariaceae: Scrophulariaceae) against Spodoptera frugiperda and Drosophila melanogaster” (2013).
Values after ≈ are worked out from the molar mass of the structure shown. Active and inactive are the calls of the source. The calls are words filed in the database; no cut-off is given here.

How the values were obtained:
Drosophila melanogaster [1] = test: Insecticidal activity against Drosophila melanogaster larvae fed with compound incorporated diet assessed as mortality at 10 ug/ml after 72 hr by not choice test (reference value: 0%); type: functional
Spodoptera frugiperda [2] = test: Growth inhibitory activity against first-instar larval stage of Spodoptera frugiperda (fall armyworm) fed with compound incorporated diet assessed as weight gained at 50 ug/ml after 21 days (reference value: 100%); type: functional
Spodoptera frugiperda [3] = test: Growth inhibitory activity against Spodoptera frugiperda (fall armyworm) larvae fed with compound containing diet assessed as relative growth index at 35 ug/ml (reference value: 1.0 no_unit); type: functional
Spodoptera frugiperda [4] = test: Growth inhibitory activity against first-instar larval stage of Spodoptera frugiperda (fall armyworm) fed with compound incorporated diet assessed as length gained at 5 ug/ml after 21 days (reference value: 100%); type: functional
Spodoptera frugiperda [5] = test: Growth inhibitory activity against Spodoptera frugiperda (fall armyworm) larvae fed with compound containing diet assessed as reduction in pupae weight at 25 ug/ml; type: functional, organism-based
Spodoptera frugiperda [6] = test: Acute toxicity against last larval stage of Spodoptera frugiperda (fall armyworm) assessed as mortality applied topically onto abdomen measured after 7 days; type: functional; details: topical, 168 h
Spodoptera frugiperda [7] = test: Growth inhibitory activity against Spodoptera frugiperda (fall armyworm) larvae fed with compound containing diet assessed as relative growth index at 10 ug/ml (reference value: 1.0 no_unit); type: functional
Spodoptera frugiperda [8] = test: Growth inhibitory activity against Spodoptera frugiperda (fall armyworm) larvae fed with compound containing diet assessed as relative growth index at 20 ug/ml (reference value: 1.0 no_unit); type: functional
Spodoptera frugiperda [9] = test: Growth inhibitory activity against Spodoptera frugiperda (fall armyworm) larvae fed with compound containing diet assessed as growth index at 10 ug/ml (reference value: 0.95 +/-0.02 no_unit); type: functional
Spodoptera frugiperda [10] = test: Growth inhibitory activity against first-instar larval stage of Spodoptera frugiperda (fall armyworm) fed with compound incorporated diet assessed as weight gained at 35 ug/ml after 7 days (reference value: 100%); type: functional; design: scale not given: the % may be the effect or the level left
Spodoptera frugiperda [11] = test: Growth inhibitory activity against first-instar larval stage of Spodoptera frugiperda (fall armyworm) fed with compound incorporated diet assessed as length gained at 10 ug/ml after 21 days (reference value: 100%); type: functional
Spodoptera frugiperda [12] = test: Growth inhibitory activity against first-instar larval stage of Spodoptera frugiperda (fall armyworm) fed with compound incorporated diet assessed as weight gained at 20 ug/ml after 21 days (reference value: 100%); type: functional
Spodoptera frugiperda [13] = test: Growth inhibitory activity against first-instar larval stage of Spodoptera frugiperda (fall armyworm) fed with compound incorporated diet assessed as length gained at 20 ug/ml after 21 days (reference value: 100%); type: functional; design: scale not given: the % may be the effect or the level left
Drosophila melanogaster [14] = test: Insecticidal activity against Drosophila melanogaster larvae fed with compound incorporated diet assessed as mortality after 72 hr by not choice test; type: functional
Spodoptera frugiperda [15] = test: Growth inhibitory activity against po dosed Spodoptera frugiperda (fall armyworm) larvae assessed as promotion of apolysis to fifth instar with ecdysis inhibition at 5 to 20 ug/ml; type: functional, organism-based
Spodoptera frugiperda [16] = test: Acute toxicity against last larval stage of Spodoptera frugiperda (fall armyworm) assessed as survival at 5 ug/ml applied topically onto abdomen measured after 24 hr (reference value: 98.8 +/-3.5%); type: functional
Spodoptera frugiperda [17] = test: Acute toxicity against last larval stage of Spodoptera frugiperda (fall armyworm) assessed as survival at 10 ug/ml applied topically onto abdomen measured after 24 hr (reference value: 98.8 +/-3.5%); type: functional
Spodoptera frugiperda [18] = test: Growth inhibitory activity against first-instar larval stage of Spodoptera frugiperda (fall armyworm) fed with compound incorporated diet assessed as length gained at 10 ug/ml after 7 days (reference value: 100%); type: functional
Spodoptera frugiperda [19] = test: Insecticidal activity against first-instar larval stage of Spodoptera frugiperda (fall armyworm) fed with compound incorporated diet assessed as mortality at 20 ug/ml after 7 days (reference value: 5.6%); type: functional; details: 168 h
Spodoptera frugiperda [20] = test: Growth inhibitory activity against Spodoptera frugiperda (fall armyworm) larvae fed with compound containing diet assessed as growth index at 35 ug/ml (reference value: 0.95 +/-0.02 no_unit); type: functional
Spodoptera frugiperda [21] = test: Insecticidal activity against first-instar larval stage of Spodoptera frugiperda (fall armyworm) fed with compound incorporated diet assessed as mortality at 50 ug/ml after 21 days (reference value: 5.6%); type: functional; details: 504 h
Spodoptera frugiperda [22] = test: Growth inhibitory activity against first-instar larval stage of Spodoptera frugiperda (fall armyworm) fed with compound incorporated diet assessed as weight gained at 35 ug/ml after 21 days (reference value: 100%); type: functional
Spodoptera frugiperda [23] = test: Growth inhibitory activity against first-instar larval stage of Spodoptera frugiperda (fall armyworm) fed with compound incorporated diet assessed as weight gained at 5 ug/ml after 21 days (reference value: 100%); type: functional
Spodoptera frugiperda [24] = test: Insecticidal activity against first-instar larval stage of Spodoptera frugiperda (fall armyworm) fed with compound incorporated diet assessed as mortality at 35 ug/ml after 21 days (reference value: 5.6%); type: functional; details: 504 h
Spodoptera frugiperda [25] = test: Insecticidal activity against first-instar larval stage of Spodoptera frugiperda (fall armyworm) fed with compound incorporated diet assessed as mortality at 10 ug/ml after 21 days (reference value: 5.6%); type: functional; details: 504 h
Drosophila melanogaster [26] = test: Insecticidal activity against Drosophila melanogaster larvae fed with compound incorporated diet assessed as mortality at 50 ug/ml after 72 hr by not choice test (reference value: 0%); type: functional
Spodoptera frugiperda [27] = test: Growth inhibitory activity against first-instar larval stage of Spodoptera frugiperda (fall armyworm) fed with compound incorporated diet assessed as weight gained at 10 ug/ml after 7 days (reference value: 100%); type: functional; design: scale not given: the % may be the effect or the level left
Spodoptera frugiperda [28] = test: Insecticidal activity against first-instar larval stage of Spodoptera frugiperda (fall armyworm) fed with compound incorporated diet assessed as mortality at 5 ug/ml after 21 days (reference value: 5.6%); type: functional; details: 504 h
Spodoptera frugiperda [29] = test: Growth inhibitory activity against first-instar larval stage of Spodoptera frugiperda (fall armyworm) fed with compound incorporated diet assessed as length gained at 50 ug/ml after 7 days (reference value: 100%); type: functional
Spodoptera frugiperda [30] = test: Growth inhibitory activity against first-instar larval stage of Spodoptera frugiperda (fall armyworm) fed with compound incorporated diet assessed as weight gained at 10 ug/ml after 21 days (reference value: 100%); type: functional
Spodoptera frugiperda [31] = test: Growth inhibitory activity against first-instar larval stage of Spodoptera frugiperda (fall armyworm) fed with compound incorporated diet assessed as weight gained at 50 ug/ml after 7 days (reference value: 100%); type: functional; design: scale not given: the % may be the effect or the level left
Spodoptera frugiperda [32] = test: Growth inhibitory activity against first-instar larval stage of Spodoptera frugiperda (fall armyworm) fed with compound incorporated diet assessed as length gained at 5 ug/ml after 7 days (reference value: 100%); type: functional; design: scale not given: the % may be the effect or the level left
Spodoptera frugiperda [33] = test: Insecticidal activity against first-instar larval stage of Spodoptera frugiperda (fall armyworm) fed with compound incorporated diet assessed as mortality at 35 ug/ml after 7 days (reference value: 5.6%); type: functional; details: 168 h
Spodoptera frugiperda [34] = test: Growth inhibitory activity against Spodoptera frugiperda (fall armyworm) larvae fed with compound containing diet assessed as growth index at 5 ug/ml (reference value: 0.95 +/-0.02 no_unit); type: functional
Spodoptera frugiperda [35] = test: Insecticidal activity against first-instar larval stage of Spodoptera frugiperda (fall armyworm) fed with compound incorporated diet assessed as mortality at 50 to 100 ug/ml after 7 days; type: functional
Spodoptera frugiperda [36] = test: Insecticidal activity against first-instar larval stage of Spodoptera frugiperda (fall armyworm) fed with compound incorporated diet assessed as mortality at 40 ug/ml after 7 days; type: functional, organism-based
Spodoptera frugiperda [37] = test: Growth inhibitory activity against Spodoptera frugiperda (fall armyworm) larvae fed with compound containing diet assessed as reduction in survival pupation at >10 ug/ml; type: functional

SMILES	mortality at 10 µg/mL (Drosophila melanogaster [1])	Weight gain relative to control (Spodoptera frugiperda [2])	Length gained (% of control) (Spodoptera frugiperda [4])	inhibition (Spodoptera frugiperda [5])	Growth_index (Spodoptera frugiperda [7])	Growth_index (Spodoptera frugiperda [8])	Growth_index (Spodoptera frugiperda [9])	Activity (Spodoptera frugiperda [10])	Length gained relative to control (Spodoptera frugiperda [11])	Weight gain relative to control (Spodoptera frugiperda [12])	Activity (Spodoptera frugiperda [13])	LC50 (Drosophila melanogaster [14])	Activity (Spodoptera frugiperda [15])	Activity (Spodoptera frugiperda [16])	Activity (Spodoptera frugiperda [17])	Larval length gained (% of control) (Spodoptera frugiperda [18])	mortality at 20 µg/mL (Spodoptera frugiperda [19])	mortality at 50 µg/mL (Spodoptera frugiperda [21])	Weight gain relative to control (Spodoptera frugiperda [22])	Larval weight gain relative to control (Spodoptera frugiperda [23])	also measured
CC(C)c1ccc2c(c1)CC[C@H]1[C@](C)(CO)CCC[C@]21C [POMIFERIN A]	13.3%	33.6%	85.6%	Active	0.98	0.96	0.93	42.3%	59.4%	50.6%	41.8%	16.1 µg/mL (≈ 56.2 µM)	Active	75%	69.1%	79%	46.8%	44%	38.2%	93.5%	Growth_index (Spodoptera frugiperda [3]): 0.75; LD50 (Spodoptera frugiperda [6]): 17.5 µg/mL; Growth_index (Spodoptera frugiperda [20]): 0.71; mortality at 35 µg/mL (Spodoptera frugiperda [24]): 25%; mortality at 10 µg/mL (Spodoptera frugiperda [25]): 5.6%; mortality at 50 µg/mL (Drosophila melanogaster [26]): 77%; Activity (Spodoptera frugiperda [27]): 81.3%; mortality at 5 µg/mL (Spodoptera frugiperda [28]): 4.16%; Length gain relative to control (Spodoptera frugiperda [29]): 33.3%; Weight gain (% of control) (Spodoptera frugiperda [30]): 65.8%; Activity (Spodoptera frugiperda [31]): 41.3%; Activity (Spodoptera frugiperda [32]): 88.3%; mortality at 35 µg/mL (Spodoptera frugiperda [33]): 63%; Growth_index (Spodoptera frugiperda [34]): 0.97
C[C@H]1[C@H](C)CC[C@]2(C(=O)O)CC[C@]3(C)C(=CC[C@@H]4[C@@]5(C)CC[C@H](O)C(C)(C)[C@@H]5CC[C@]43C)[C@H]12 [URSOLIC ACID]	7%	0%	57.2%	Active	0.73	0.29	0.69	49.2%	48.4%	30.1%	28.6%	41.3 µg/mL (≈ 90.4 µM)	Active	73%	52.9%	10.7%	29.2%	100%	0%	51.9%	mortality (Spodoptera frugiperda [35]): 100%; mortality (Spodoptera frugiperda [36]): Active; mortality at 35 µg/mL (Spodoptera frugiperda [24]): 100%; mortality at 10 µg/mL (Spodoptera frugiperda [25]): 81.3%; mortality at 50 µg/mL (Drosophila melanogaster [26]): 65.2%; Activity (Spodoptera frugiperda [27]): 53.3%; mortality at 5 µg/mL (Spodoptera frugiperda [28]): 79.1%; inhibition (INH) (Spodoptera frugiperda [37]): 0%; Length gain relative to control (Spodoptera frugiperda [29]): 3.4%; Weight gain (% of control) (Spodoptera frugiperda [30]): 47.4%; Activity (Spodoptera frugiperda [31]): 32.5%; Activity (Spodoptera frugiperda [32]): 68.6%; mortality at 35 µg/mL (Spodoptera frugiperda [33]): 46.8%; Growth_index (Spodoptera frugiperda [34]): 0.93
